The record followed here is patent publication US20220132847A1, “CINNOLINIUM COMPOUNDS FOR USE IN A METHOD OF CONTROLLING UNWANTED PLANT GROWTH” (SYNGENTA CROP PROTECTION AG, priority 2019, published 2022).

Structures are written as SMILES.

Holding throughout (assay): Post-emergence efficacy, glasshouse
What all share (type): in vivo

For experiment [1], the system named is Amaranthus palmeri (AMAPA). The conditions noted are these: Amaranthus palmeri, post-emergence, 312 h; Application Rate 1000 g/Ha; evaluated after 13 days; 100=total damage to plant, 0=no damage to plant; read-out: Control of weed species after post-emergence application, AMAPA. Put shortly:
(§1)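 Plants grown 14 days in glasshouse (24/16° C, 14 h light, 65% humidity), then sprayed post-emergence with active ingredient in IF50 solvent/emulsifier mix, diluted in 0.25% or 1% Empicol ESC70 + 1% ammonium sulphate. Damage scored 13 days later, 0–100 (100 = total damage).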

The test system of experiment [2] is Echinochloa crus-galli (ECHCG). The conditions noted are these: Echinochloa crus-galli, post-emergence, 312 h; Application Rate 1000 g/Ha; evaluated after 13 days; 100=total damage to plant, 0=no damage to plant; read-out: Control of weed species after post-emergence application, ECHCG. Put shortly:
as §1

For experiment [3], the system named is Euphorbia heterophylla (EPHHL). The conditions noted are these: Euphorbia heterophylla, post-emergence, 312 h; Application Rate 1000 g/Ha; evaluated after 13 days; 100=total damage to plant, 0=no damage to plant; read-out: Control of weed species after post-emergence application, EPHHL. Put shortly:
as §1

The next experiment deals with Eleusine indica (ELEIN). The conditions noted are these: Eleusine indica, post-emergence, 312 h; Application Rate 1000 g/Ha; evaluated after 13 days; 100=total damage to plant, 0=no damage to plant; read-out: Control of weed species after post-emergence application, ELEIN. Put shortly:
as §1

Another experiment concerns Lolium perenne (LOLPE). The conditions noted are these: Lolium perenne, post-emergence, 312 h; Application Rate 1000 g/Ha; evaluated after 13 days; 100=total damage to plant, 0=no damage to plant; read-out: Control of weed species after post-emergence application, LOLPE. Put shortly: as §1
Experiment [4] has as its system Ipomoea hederacea (IPOHE). The conditions noted are these: Ipomoea hederacea, post-emergence, 312 h; Application Rate 1000 g/Ha; evaluated after 13 days; 100=total damage to plant, 0=no damage to plant; read-out: Control of weed species after post-emergence application, IPOHE. Put shortly:
as §1

The test system of the next experiment is Setaria faberi (SETFA). The conditions noted are these: Setaria faberi, post-emergence, 312 h; Application Rate 1000 g/Ha; evaluated after 13 days; 100=total damage to plant, 0=no damage to plant; read-out: Control of weed species after post-emergence application, SETFA. Put shortly:
as §1

The subject of experiment [5] is Chenopodium album (CHEAL). The conditions noted are these: Chenopodium album, post-emergence, 312 h; Application Rate 1000 g/Ha; evaluated after 13 days; 100=total damage to plant, 0=no damage to plant; read-out: Control of weed species after post-emergence application, CHEAL. An outline of the steps: as §1
The subject of experiment [6] is Digitaria sanguinalis (DIGSA). The conditions noted are these: Digitaria sanguinalis, post-emergence, 312 h; Application Rate 1000 g/Ha; evaluated after 13 days; 100=total damage to plant, 0=no damage to plant; read-out: Control of weed species after post-emergence application, DIGSA. An outline of the steps: as §1

Consider `O=P(O)(O)CCCc1c[n+](CCCP(=O)(O)O)nc2ccccc12` [Compound A82, 3-[2-(3-phosphonopropyl)cinnolin-2-ium-4-yl]propylphosphonic acid chloride], for which the pest or weed control at 1000 g/ha in experiment [1] was determined as 30%; in experiment [2] it was 20%; in experiment [3], 20%; with Eleusine indica (ELEIN), 10%; in the experiment on Lolium perenne (LOLPE), 10%; in experiment [4], 10%. In addition, the pest or weed control at 1000 g/ha came to 0% with Setaria faberi (SETFA), 0% in [5] and 10% in experiment [6].
On to `CCCP(=O)([O-])c1c[n+](C)nc2ccccc12` [Compound A49], for which the pest or weed control at 1000 g/ha in experiment [1] came to 100%; in experiment [2], 70%; in experiment [3] it was 100%; in the experiment on Eleusine indica (ELEIN), 100%; with Lolium perenne (LOLPE), 30%; in [4], 90%. Moreover, the pest or weed control at 1000 g/ha amounted to 90% in the experiment on Setaria faberi (SETFA), 90% in [5] and 100% in experiment [6].
For the molecule `COP(=O)([O-])c1c[n+](CC(=O)NS(C)(=O)=O)nc2ccccc12` [Compound A63, [2-[2-(methanesulfonamido)-2-oxo-ethyl]cinnolin-2-ium-4-yl]-methoxy-phosphinate], the pest or weed control at 1000 g/ha was found to be 30% in experiment [1]; 50% in [2]; 70% in [3]; 50% in the experiment on Eleusine indica (ELEIN); 10% with Lolium perenne (LOLPE); 30% in experiment [4]. Further, the pest or weed control at 1000 g/ha in the experiment on Setaria faberi (SETFA) turned out to be 60%; in experiment [5] it was 30%; in experiment [6], 70%.
For the molecule `COP(=O)(O)Cc1c[n+](C)nc2ccccc12` [Compound A53], the pest or weed control at 1000 g/ha is 100% in experiment [1]; 80% in experiment [2]; 100% in [3]; 100% in the experiment with Eleusine indica (ELEIN); 30% in the experiment on Lolium perenne (LOLPE); 100% in experiment [4]. The pest or weed control at 1000 g/ha with Setaria faberi (SETFA) came out at 90%; in [5], 70%; in experiment [6], 90%.
In the case of `COC(=O)CCS(=O)(=O)[N-]C(=O)c1c[n+](C)nc2ccccc12` [Compound A42], the pest or weed control at 1000 g/ha in experiment [1] amounted to 70%; in experiment [2], 20%; in experiment [3], 60%; with Eleusine indica (ELEIN), 80%; in the experiment on Lolium perenne (LOLPE), 10%; in [4] it was 40%. Further, the pest or weed control at 1000 g/ha in the experiment on Setaria faberi (SETFA) stood at 40%; in [5] it was 60%; in experiment [6], 60%.
As for `C[n+]1cc(C(=O)[N-]S(=O)(=O)c2ccc(Cl)s2)c2ccccc2n1` [Compound A39], the pest or weed control at 1000 g/ha in experiment [1] was found to be 80%; in experiment [2] it was 20%; in experiment [3], 20%; in the experiment with Eleusine indica (ELEIN) it was 10%; with Lolium perenne (LOLPE), 0%; in experiment [4] it was 30%. Also, the pest or weed control at 1000 g/ha with Setaria faberi (SETFA) was 30%; in experiment [5], 30%; in experiment [6], 10%.
As for `COC(=O)CC[n+]1cc(C(=O)[N-]S(C)(=O)=O)c2ccccc2n1` [Compound A18], the pest or weed control at 1000 g/ha was determined as 10% in [1]; 20% in experiment [2]; 10% in [3]; 20% in the experiment on Eleusine indica (ELEIN); 0% in the experiment on Lolium perenne (LOLPE); 20% in [4]. The pest or weed control at 1000 g/ha in the experiment on Setaria faberi (SETFA) came to 10%; in experiment [5] it was 10%; in experiment [6], 30%.
Consider `C[n+]1cc(C(=O)[N-]S(=O)(=O)C2CC2)c2ccccc2n1` [Compound A12], for which the pest or weed control at 1000 g/ha in experiment [1] came to 60%; in experiment [2] it was 30%; in experiment [3], 70%; with Eleusine indica (ELEIN), 30%; in the experiment with Lolium perenne (LOLPE), 40%; in experiment [4], 70%. Besides, the pest or weed control at 1000 g/ha came to 60% in the experiment on Setaria faberi (SETFA), 60% in experiment [5] and 20% in experiment [6].
For the molecule `C[n+]1cc(C(=O)O)c2ccccc2n1` [Compound A29], the pest or weed control at 1000 g/ha was 90% in experiment [1]; 40% in [2]; 80% in [3]; 20% in the experiment with Eleusine indica (ELEIN); 40% in the experiment with Lolium perenne (LOLPE); 80% in [4]. The figures for the pest or weed control at 1000 g/ha (with Setaria faberi (SETFA); in experiment [5]; in [6]) were 50%, 90% and 30%, respectively.
Consider `Cn1nnnc1[N-]C(=O)c1c[n+](C)nc2ccccc12` [Compound A16], for which the pest or weed control at 1000 g/ha is 50% in experiment [1]; 20% in [2]; 30% in experiment [3]; 0% with Eleusine indica (ELEIN); 10% with Lolium perenne (LOLPE); 40% in experiment [4]. For the same molecule, the figures for the pest or weed control at 1000 g/ha (with Setaria faberi (SETFA); in experiment [5]; in experiment [6]) were 10%, 60% and 0%, respectively.
In the case of `C[n+]1cc(OCC(=O)O)c2ccccc2n1` [Compound A58], the pest or weed control at 1000 g/ha in [1] amounted to 80%; in experiment [2], 10%; in experiment [3] it was 20%; with Eleusine indica (ELEIN), 30%; in the experiment with Lolium perenne (LOLPE), 0%; in [4], 20%. The results for the pest or weed control at 1000 g/ha (with Setaria faberi (SETFA); in [5]; in [6]) were 60%, 70% and 70%, respectively.
Take `CCCC[n+]1cc(C(=O)[N-]S(C)(=O)=O)c2ccccc2n1` [Compound A41]: the pest or weed control at 1000 g/ha in [1] is 80%; in experiment [2], 20%; in experiment [3] it was 100%; in the experiment on Eleusine indica (ELEIN), 30%; in the experiment with Lolium perenne (LOLPE) it was 30%; in [4], 80%. The pest or weed control at 1000 g/ha was 40% in the experiment with Setaria faberi (SETFA), 60% in experiment [5] and 40% in experiment [6].
